The source of these data is BindingDB's records for doi:10.1016/j.ejmech.2017.04.013 (Ghent University, 2017).

Molecules are shown by their SMILES.

The target of one assay is Histone deacetylase 1 (Homo sapiens, UniProt Q13547). The assay can be described thus: Inhibition of HDAC1 (unknown origin).
The next assay has as its target Histone deacetylase 9 (Homo sapiens, UniProt Q9UKV0). The assay can be described thus: ChEBML_1684755.
In assay [1] the target is Histone deacetylase 8 (Homo sapiens) (UniProt Q9BY41). As to the kind of experiment: Inhibition of recombinant human HDAC8 using Boc-Lys (Ac)-AMC substrate by fluorescence assay.
Chain of Histone deacetylase 8 (Homo sapiens) (Q9BY41 whole entry, looked up): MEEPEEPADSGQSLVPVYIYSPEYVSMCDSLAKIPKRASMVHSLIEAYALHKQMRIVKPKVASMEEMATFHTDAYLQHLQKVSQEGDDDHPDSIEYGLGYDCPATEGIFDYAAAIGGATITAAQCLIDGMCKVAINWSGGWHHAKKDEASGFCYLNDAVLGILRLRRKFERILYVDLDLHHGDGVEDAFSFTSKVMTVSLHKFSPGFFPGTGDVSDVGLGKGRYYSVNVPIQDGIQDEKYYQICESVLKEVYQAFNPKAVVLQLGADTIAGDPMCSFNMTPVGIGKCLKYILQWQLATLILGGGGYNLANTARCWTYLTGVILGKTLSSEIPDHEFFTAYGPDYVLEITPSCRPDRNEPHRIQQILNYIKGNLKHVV

Chain of Histone deacetylase 9 (Q9UKV0 whole entry): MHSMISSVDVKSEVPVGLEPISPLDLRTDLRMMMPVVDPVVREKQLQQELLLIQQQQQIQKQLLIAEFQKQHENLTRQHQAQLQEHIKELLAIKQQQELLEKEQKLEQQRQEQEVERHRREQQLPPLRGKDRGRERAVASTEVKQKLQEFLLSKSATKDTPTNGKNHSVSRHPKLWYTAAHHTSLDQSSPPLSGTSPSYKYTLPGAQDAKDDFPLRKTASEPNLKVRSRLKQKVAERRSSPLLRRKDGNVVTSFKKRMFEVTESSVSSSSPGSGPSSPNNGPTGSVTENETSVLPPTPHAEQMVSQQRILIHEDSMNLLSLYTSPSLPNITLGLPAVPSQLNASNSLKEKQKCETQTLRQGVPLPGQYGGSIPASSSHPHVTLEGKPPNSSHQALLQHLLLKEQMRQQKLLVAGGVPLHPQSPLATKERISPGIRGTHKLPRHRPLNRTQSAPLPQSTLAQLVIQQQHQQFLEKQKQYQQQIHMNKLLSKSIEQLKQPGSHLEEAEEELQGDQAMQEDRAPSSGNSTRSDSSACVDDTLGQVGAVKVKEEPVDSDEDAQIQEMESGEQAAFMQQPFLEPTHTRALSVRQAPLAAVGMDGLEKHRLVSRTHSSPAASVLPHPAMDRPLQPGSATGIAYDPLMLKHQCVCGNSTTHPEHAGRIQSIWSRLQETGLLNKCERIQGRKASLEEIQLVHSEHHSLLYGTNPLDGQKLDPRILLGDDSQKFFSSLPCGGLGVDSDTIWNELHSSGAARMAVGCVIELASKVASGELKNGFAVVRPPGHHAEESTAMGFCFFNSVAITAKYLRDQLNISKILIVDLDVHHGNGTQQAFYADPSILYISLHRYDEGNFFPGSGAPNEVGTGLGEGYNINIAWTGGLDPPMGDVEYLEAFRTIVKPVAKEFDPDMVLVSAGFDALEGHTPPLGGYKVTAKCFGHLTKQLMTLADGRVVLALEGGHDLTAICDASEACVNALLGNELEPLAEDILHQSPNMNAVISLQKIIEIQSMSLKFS
Chain of Histone deacetylase 1 (Q13547 whole entry): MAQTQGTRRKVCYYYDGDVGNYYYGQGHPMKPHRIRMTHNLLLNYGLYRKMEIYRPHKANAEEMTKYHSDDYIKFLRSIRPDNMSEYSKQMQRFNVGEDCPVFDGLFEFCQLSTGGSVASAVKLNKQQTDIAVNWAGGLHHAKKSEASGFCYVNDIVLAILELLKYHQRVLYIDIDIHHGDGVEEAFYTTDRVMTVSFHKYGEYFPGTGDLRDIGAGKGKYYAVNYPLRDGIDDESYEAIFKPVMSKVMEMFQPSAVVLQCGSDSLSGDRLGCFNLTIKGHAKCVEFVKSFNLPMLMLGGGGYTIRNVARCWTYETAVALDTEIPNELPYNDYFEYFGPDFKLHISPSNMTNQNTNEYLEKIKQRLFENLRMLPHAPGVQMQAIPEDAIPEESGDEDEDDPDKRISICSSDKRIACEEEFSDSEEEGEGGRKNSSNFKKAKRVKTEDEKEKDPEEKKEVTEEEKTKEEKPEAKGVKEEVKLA

As a reminder, the IC50 is the concentration needed to halve the response being measured. In the case of `Cc1nc2ccccc2n1Cc1ccc(C(=O)NO)cc1F`, the IC50 is 9 µM at Histone deacetylase 1 and 70 nM against Histone deacetylase 9.
Consider `O=C(NO)c1ccc(Cn2cc(-c3ccc(CN4CCCC4)cc3)nn2)cc1`, for which, in assay [1], the IC50 was 280 nM.
